# Patent publication US10487071B2, “Bis-triazole compounds with anti-biofilm and anti-corrosion properties” (Université de Toulon, priority 2015, dated 2019)
# Like-named read-outs stand apart in the source and are kept apart here.
# Experiments:
# [1] = system: Pseudoalteromonas ulvae (TC14); assay: Anti-adhesion test, strain TC14; assay type: cell-based; details: for activity at 200 µM / EC50: Pseudoalteromonas ulvae; for activity at 200 µM: 15 h; for EC50: read-out: EC50 (effective concentration to inhibit 50% of the adhesion)
# Protocol: (§1) Bacterial strains were grown on Väätänen nine-salts solution (VNSS). When the stationary phase was reached, the bacterial suspension was centrifuged. Cells were then diluted in sterile artificial sea water (ASW) and introduced in microtiter plates (sterile black PS; Nunc, Fisher Scientific, France) with the tested compound (at eight concentrations in three replicates) in the presence of three controls: (i) non-specific staining control, (ii) adhesion control, and (iii) positive control. The maximum percentage of solvent (DMSO 2%) used to dilute the tested compound was also tested in triplicate as additional control. After incubation during an optimized adhesion time (moderately 15 h), non-adhered bacteria were eliminated and adhered cells were quantified after SYTO 61 (1 μM) staining. A percentage of inhibition was calculated per well. A sigmoid dose-response curve was obtained by plotting the percentage of inhibition as a function of the log of tested compound concentration, after mean (n=3) and standard deviation (SD) calculation per triplicate for each concentration. EC50 values were then calculated for each compound.
# (§2) Pseudoalteromonas ulvae (TC14) was isolated in June 2010 in the Military Harbor of Toulon (Mediterranean Sea, France) as described in F. Brian-Jaisson, A. Ortalo-Magné, L. Guentas-Dombrowsky, F. Armougom, Y. Blache, M. Molmeret, Microb. Ecol., 2014, 68, 94-110.
# Paracoccus sp. (4M6) [2] = assay: Anti-adhesion test, strain 4M6; assay type: cell-based; details: Paracoccus; for activity at 200 µM: 15 h, read-out: % of adhesion at 200 μM, 4M6; for EC50: read-out: EC50 (effective concentration to inhibit 50% of the adhesion), 4M6
# Protocol: (§3) The anti-adhesion bioassays and toxicity tests are adapted from those disclosed in M. Camps, J.-F. Briand, L. Guentas-Dombrowsky, G. Culioli, A. Bazire and Y. Blache, Mar. Poll.
# as §1
# [3] = Gravimetry (weight loss), corrosion inhibition; details: mild steel in 1N HCl
# Protocol: The corrosion rates were determined by electrochemical impedance spectroscopy measurements and gravimetry.
# Weight loss measurements were performed on 2.5×2.0×0.1 cm rectangular mild steel coupons. The mild steel coupons were immersed into non-de-aerated HCl 1N solution in absence and presence of different concentrations of compounds of general formula (I). After the elapsed time, the coupons were taken out, washed, dried and weighed accurately. Experiments were duplicated.
# Weight loss experiments were done to confirm the corrosion inhibitive properties of AS164.
# The inhibition efficiency, IE (%), was estimated from the weight loss experiments using the following equation:
# [formula] wherein CR^o and CR are respectively the corrosion rate in the absence and presence of AS164.
# [4] = system: Pseudoalteromonas lipolytica (TC8); assay: Anti-adhesion test, strain TC8; assay type: cell-based; details: Pseudoalteromonas lipolytica; for activity at 200 µM: 15 h, read-out: % of adhesion at 200 μM, TC8; for EC50: read-out: EC50 (effective concentration to inhibit 50% of the adhesion), TC8
# Protocol: as §3, §1
# [5] = system: Pseudoalteromonas lipolytica (TC8); assay: microbe, parasite or virus in culture
# Excerpt: as §3
# (§4) After growth on VNSS, bacterial strains were harvested during the exponential phase. The microtiter plates (sterile transparent PS; Nunc, Fisher Scientific) were filled as described in the Anti-adhesion test method using VNSS instead of ASW to allow bacterial growth. The growth was followed by measuring the turbidity (OD600 nm) every hour during 6 or 7 hours. Then, resazurin (50 μM) was added in all the wells, and fluorescence was measured after 2 h to quantify the percent of bacterial viability. The same methodology used with SYTO 61 was applied to calculate a percent of viability after resazurin staining.
# Paracoccus sp. (4M6) [6] = assay: microbe, parasite or virus in culture
# Excerpt: as §3, §4
# [7] = system: Pseudoalteromonas ulvae (TC14); assay: Toxicity test, strain TC14; assay type: cell-based
# Excerpt: as §2
# [8] = system: marine bacterial strains (TC14, TC8, 4M6, TC5 and TC11); assay: Anti-adhesion test, summary over the strains; assay type: cell-based
# Protocol: as §1
# (§5) In examples 64 and 65, the following marine bacterial strains are used.
# Shewanella sp. (TC11) [9] = assay: Toxicity test, strain TC11; assay type: cell-based
# Excerpt: (§6) Shewanella sp. (TC11) was isolated in June 2010 in the Military Harbor of Toulon (Mediterranean Sea, France) as described in F. Brian-Jaisson, A. Ortalo-Magné, L. Guentas-Dombrowsky, F. Armougom, Y. Blache, M. Molmeret, Microb. Ecol., 2014, 68, 94-110.
# [10] = system: marine bacterial strains (TC14, TC8, 4M6, TC5 and TC11); assay: Toxicity test, summary over the strains; assay type: cell-based; details: comparison with reference biocides
# Excerpt: as §5
# Shewanella sp. (TC11) [11] = assay: Anti-adhesion test, strain TC11; assay type: cell-based
# Protocol: as §1, §6
# Polaribacter sp. (TC5) [12] = assay: Toxicity test, strain TC5; assay type: cell-based
# Excerpt: (§7) Polaribacter sp. (TC5) was isolated in June 2010 in the Military Harbor of Toulon (Mediterranean Sea, France) as described in F. Brian-Jaisson, A. Ortalo-Magné, L. Guentas-Dombrowsky, F. Armougom, Y. Blache, M. Molmeret, Microb. Ecol., 2014, 68, 94-110.
# Polaribacter sp. (TC5) [13] = assay: Anti-adhesion test, strain TC5; assay type: cell-based
# Protocol: as §1, §7
# [14] = read-out: inhibition of the adhesion of at least two marine bacterial strains
structure (smiles),measurement,setting,value
"CN(C)CCOc1ccc(CCn2cc(-c3ccc(-c4cn(CCc5ccc(OCCN(C)C)c(Br)c5)nn4)cc3)nn2)cc1Br [AS162, 2-(4-(2-(4-(4-(1-(4-(2-(dimethylamino)ethoxy)-3-bromophenethyl)-1H-1,2,3-triazol-4-yl)phenyl)-1H-1,2,3-triazol-1-yl)ethyl)-2-bromophenoxy)-N,N-dimethylethanamine]",inhibition of the adhesion of bacterial strain TC14,[1]; 200 μM,totally inhibit
same,activity at 200 µM,[1]; 200 μM,0%
same,EC50,[1],0.97 ± 0.8 µM
same,activity at 200 µM,Paracoccus sp. (4M6) [2],10.9 ± 8.1%
same,EC50,Paracoccus sp. (4M6) [2],5.1 ± 1.04 µM
same,IE %,[3]; 0.1 ppm,48.81%
same,IE %,[3]; 0.3 ppm,93.35%
same,IE %,[3]; 0.5 ppm,92.92%
same,IE %,[3]; 2 ppm,97.73%
same,IE %,[3]; 10 ppm,97.30%
same,activity at 200 µM,[4],14%
same,EC50,[4],5.1 ± 1 µM
same,CC50,"[5]; Pseudoalteromonas lipolytica, read-out: LC50 (necessary concentration to kill 50% of the bacteria), TC8",66.1 µM
same,"IS: LC50/EC50 (selectivity index), TC8",[5]; strain TC8,12.9
same,CC50,"Paracoccus sp. (4M6) [6]; Paracoccus, read-out: LC50 (necessary concentration to kill 50% of the bacteria), 4M6",97.6 µM
same,"IS: LC50/EC50 (selectivity index), 4M6",Paracoccus sp. (4M6) [6]; strain 4M6,19.2
same,"IS: LC50/EC50 (selectivity index), TC14",[7],265.7
same,"LC50 (necessary concentration to kill 50% of the bacteria), TC14",[7],257.7 µM
same,EC50 compared with TBTO/ZINEB,[8]; comparison with reference biocides,comparable to that of TBTO and lower than that of ZINEB
same,inhibition at 200 µM,[8]; read-out: inhibition of the adhesion of at least four marine bacterial strains,≥ 85%
same,inhibition at 200 µM,[8]; [14],≥ 65%
same,"IS: LC50/EC50 (selectivity index), TC11",Shewanella sp. (TC11) [9],26.5
same,"LC50 (necessary concentration to kill 50% of the bacteria), TC11",Shewanella sp. (TC11) [9],334.3 µM
same,toxicity by LC50 values compared with TBTO/ZINEB,[10],less toxic than TBTO and ZINEB
same,activity at 200 µM,"Shewanella sp. (TC11) [11]; 15 h, read-out: % of adhesion at 200 μM, TC11",4.3 ± 7.5%
same,EC50,"Shewanella sp. (TC11) [11]; read-out: EC50 (effective concentration to inhibit 50% of the adhesion), strain TC11",12.6 ± 5.1 µM
same,"IS: LC50/EC50 (selectivity index), TC5",Polaribacter sp. (TC5) [12],24.6
same,CC50,Polaribacter sp. (TC5) [12]; read-out: LC50 (necessary concentration to kill 50% of the bacteria),382 µM
same,activity at 200 µM,"Polaribacter sp. (TC5) [13]; 15 h, 200 μM",21.5 ± 6.6%
same,EC50,Polaribacter sp. (TC5) [13]; read-out: EC50 (effective concentration to inhibit 50% of the adhesion),15.5 ± 0.1 µM
"CN(C)CCOc1ccc(CCn2cc(COCc3cn(CCc4ccc(OCCN(C)C)c(Br)c4)nn3)nn2)cc1Br [AS163, 2-(4-(2-(4-(((1-(4-(2-(dimethylamino)ethoxy)-3-bromophenethyl)-1H-1,2,3-triazol-4-yl)methoxy)methyl)-1H-1,2,3-triazol-1-yl)ethyl)-2-bromophenoxy)-N,N-dimethylethanamine]",activity at 200 µM,[1]; 200 μM,34.8 ± 2.7%
same,EC50,[1],91.8 ± 17.9 µM
same,activity at 200 µM,Paracoccus sp. (4M6) [2],40.4 ± 7.8%
same,EC50,Paracoccus sp. (4M6) [2],146 ± 81.9 µM
same,IE %,[3]; 0.1 ppm,82.24%
same,IE %,[3]; 0.3 ppm,89.36%
same,IE %,[3]; 0.5 ppm,94.54%
same,IE %,[3]; 2 ppm,96.52%
same,IE %,[3]; 10 ppm,97.07%
same,activity at 200 µM,[4],34.6 ± 5.1%
same,EC50,[4],102 ± 46.2 µM
same,inhibition at 200 µM,[8]; [14],≥ 65%
